Among the test systems are BT-549 breast; HS 578T breast; MDA-MB-435; NCI/ADR-RES ovarian; T-47D breast.
Common to all, as to experiment: DTP human tumour cell line panel, 48 h

Where “and” joins values, the source holds several entries; their conditions need not be identical. Identical values can stand only once.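 A five-concentration, 48-hour dose response in 96-well plates underlies each endpoint, interpolated linearly between surrounding concentrations. GI50 is the concentration that inhibits growth by half. Definition used: TGI = concentration required for complete inhibition of growth.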 Bounds are passed on as bounds.

This passage reports GI50 and TGI results from PubChem BioAssay (NCI).

The term GI50 denotes the concentration at which growth is held to half of that of the control. The term TGI denotes the concentration giving total growth inhibition. On to `CCCCCCCCOC(=O)c1cc(O)c(O)c(O)c1`, for which the GI50 was 2.08 µM in the experiment with BT-549 breast; 2.4 µM in the experiment on HS 578T breast; 1.53 µM in the experiment with MDA-MB-435; 1.52 µM in the experiment on NCI/ADR-RES ovarian; 2.61 µM in the experiment with T-47D breast. In addition, the TGI came to 14.2 µM with BT-549 breast; 22.2 µM with HS 578T breast; 16.5 µM with MDA-MB-435; 10.2 µM in the experiment with NCI/ADR-RES ovarian; 21.8 µM in the experiment on T-47D breast.

On to `Nc1nc(N)c2ncn(Cc3c(Cl)cccc3Cl)c2n1`, for which the TGI in the experiment with BT-549 breast, in the experiment on HS 578T breast, with MDA-MB-435, with NCI/ADR-RES ovarian and with T-47D breast was greater than 100 µM in each case.

As to `Cc1cc2cc(Oc3ccnc(Nc4cccc(CS(=O)(=O)NCCN(C)C)c4)n3)ccc2[nH]1`, the GI50 in the experiment on BT-549 breast was 5.03 µM; in the experiment with HS 578T breast, 3.17 µM; in the experiment on MDA-MB-435 it was 5.37 µM; in the experiment on NCI/ADR-RES ovarian, 17.9 µM; in the experiment with T-47D breast, 4.93 µM. Besides, the total growth inhibition concentration (TGI) was found to be 18.1 µM in the experiment with BT-549 breast; 29.5 µM in the experiment with HS 578T breast; 18.4 µM in the experiment with MDA-MB-435; 43.6 µM in the experiment with NCI/ADR-RES ovarian; 22.7 µM with T-47D breast.

Consider `N#C/C(=C/c1cccs1)c1cccs1`, for which the GI50 in the experiment with HS 578T breast was 99.3 µM; in the experiment with MDA-MB-435, greater than 100 µM; in the experiment on NCI/ADR-RES ovarian, greater than 100 µM; in the experiment on T-47D breast, 51.5 µM. In addition, the TGI with HS 578T breast, with MDA-MB-435, with NCI/ADR-RES ovarian and in the experiment with T-47D breast was greater than 100 µM in each case.

On to `CC(C)(C)OC(=O)N(CCCn1c2c(c3ccccc3c1=O)C(=O)c1ccccc1-2)CCN(CCCn1c2c(c3ccccc3c1=O)C(=O)c1ccccc1-2)C(=O)OC(C)(C)C`, for which the GI50 in the experiment on BT-549 breast was greater than 50 µM; with HS 578T breast, 15.8 µM; in the experiment with MDA-MB-435, greater than 50 µM; in the experiment on NCI/ADR-RES ovarian it was greater than 50 µM; in the experiment on T-47D breast, greater than 50 µM. The total growth inhibition concentration (TGI) in the experiment on BT-549 breast, in the experiment on HS 578T breast, in the experiment with MDA-MB-435, in the experiment on NCI/ADR-RES ovarian and in the experiment on T-47D breast was greater than 50 µM each time.

For the molecule `CC(C)NCCCNC1=C(Cl)C(=O)c2ccccc2C1=O`, the GI50 with BT-549 breast is 5.36 µM; in the experiment with HS 578T breast it was 2.93 µM; in the experiment with MDA-MB-435, 2.1 µM; in the experiment with NCI/ADR-RES ovarian, 12 µM; in the experiment on T-47D breast, 8.02 µM. The TGI in the experiment on BT-549 breast amounted to 18.2 µM; in the experiment on HS 578T breast it was 9.02 µM; with MDA-MB-435, 4.07 µM; in the experiment on NCI/ADR-RES ovarian it was 28.6 µM; with T-47D breast, 33.8 µM.

Take `O=C(O)C1(C(=O)O)CCN(S(=O)(=O)c2ccccc2)CC1`: the TGI in the experiment with BT-549 breast, in the experiment on HS 578T breast, with MDA-MB-435, in the experiment with NCI/ADR-RES ovarian and in the experiment with T-47D breast was greater than 100 µM throughout.

Take `CCCCCCCCCCCCCCCC[N+](C)(C)C`: the GI50 was 0.267 µM in the experiment on BT-549 breast; 0.269 µM and 1.82 µM in the experiment with HS 578T breast; 0.241 µM in the experiment on MDA-MB-435; 1.6 µM and 11.9 µM in the experiment with NCI/ADR-RES ovarian; 0.272 µM and 2.56 µM with T-47D breast. The TGI was 0.873 µM in the experiment on BT-549 breast; 0.984 µM and 5.46 µM in the experiment with HS 578T breast; 0.761 µM in the experiment with MDA-MB-435; 6.53 µM and 31.6 µM in the experiment on NCI/ADR-RES ovarian; 1.2 µM and 9.59 µM in the experiment with T-47D breast.

For `Cc1ccc2nc(NC(=O)CSC(=S)N3CCN(Cc4ccccc4)CC3)sc2c1`, the GI50 was greater than 100 µM in the experiment on BT-549 breast; greater than 100 µM in the experiment on HS 578T breast; greater than 100 µM in the experiment on MDA-MB-435; greater than 100 µM with NCI/ADR-RES ovarian; 72.3 µM in the experiment on T-47D breast. Besides, the TGI in the experiment with BT-549 breast, in the experiment with HS 578T breast, in the experiment on MDA-MB-435, in the experiment on NCI/ADR-RES ovarian and in the experiment with T-47D breast was greater than 100 µM each time.

As to `CCCCCn1ncc(-c2c(O)c(O)cc3c(O)c(-c4c(C)cc5c(-c6cnn(CCCCC)n6)c(O)c(O)cc5c4O)c(C)cc23)n1`, the GI50 is 0.0913 µM with BT-549 breast; 0.152 µM with HS 578T breast; 0.109 µM in the experiment with MDA-MB-435; 0.903 µM in the experiment with NCI/ADR-RES ovarian; 0.0627 µM with T-47D breast. Moreover, the TGI in the experiment on BT-549 breast was 5.09 µM; with HS 578T breast, 8.87 µM; with MDA-MB-435 it was 5.02 µM; in the experiment with NCI/ADR-RES ovarian it was 5.32 µM; in the experiment on T-47D breast, 1.42 µM.

In the case of `CN1CCN(c2ccc3nc(-c4ccc5nc(-c6ccc(C(F)(F)F)cc6)[nH]c5c4)[nH]c3c2)CC1`, the GI50 with BT-549 breast is 5.91 µM; with HS 578T breast it was 2.03 µM; with MDA-MB-435, 1.66 µM; in the experiment on NCI/ADR-RES ovarian, 25.7 µM; with T-47D breast it was 1.38 µM. The TGI is 22.5 µM with BT-549 breast; 4.49 µM with HS 578T breast; 3.1 µM in the experiment with MDA-MB-435; greater than 100 µM with NCI/ADR-RES ovarian; 3.33 µM with T-47D breast.

Turning to `CCN(CCc1ccc(F)cc1)c1ccc(CO)c(Cl)c1`, the GI50 is 11.4 µM with BT-549 breast; 11.5 µM in the experiment with HS 578T breast; 15.6 µM in the experiment with MDA-MB-435; 11.8 µM with NCI/ADR-RES ovarian; 1.39 µM in the experiment on T-47D breast. Also, the TGI in the experiment with BT-549 breast turned out to be 23.8 µM; in the experiment with HS 578T breast, 32.4 µM; with MDA-MB-435 it was 31.8 µM; with NCI/ADR-RES ovarian, 28.1 µM; in the experiment with T-47D breast it was 12.7 µM.

`Cc1cc(Cl)ccc1OCC(=O)Oc1c(Cl)c(Cl)c(Cl)c(Cl)c1Cl`: the TGI in the experiment with BT-549 breast was greater than 100 µM; in the experiment with HS 578T breast, 66.3 µM; with MDA-MB-435, 68.9 µM; with NCI/ADR-RES ovarian, 67.6 µM.

In the case of `CO/N=C(\COc1ccc2c(=O)cc(-c3ccccc3)oc2c1)c1ccc(OC)cc1`, the GI50 is greater than 100 µM with BT-549 breast; greater than 100 µM with HS 578T breast; 30 µM in the experiment on MDA-MB-435; greater than 100 µM in the experiment with NCI/ADR-RES ovarian; 53.5 µM in the experiment on T-47D breast. The TGI with BT-549 breast, in the experiment with HS 578T breast, in the experiment with MDA-MB-435, with NCI/ADR-RES ovarian and in the experiment with T-47D breast was greater than 100 µM in each case.
